#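 Following 48 hours of exposure in 96-well plates, responses at five concentrations were used to interpolate endpoints linearly. The concentration for 50% growth inhibition is given as GI50.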 Activity calls are given as the source filed them. Cut-off read from the data, not from the text of the source: active = GI50 up to about 1.1 µM and inactive = higher.
# Key:
# Assay in all cases: growth of human tumour cells (NCI), 48 h
# [1] = system: IGROV-1
# [2] = system: MCF7
# [3] = system: RPMI-8226
# [4] = system: UACC-62
# [5] = system: NCI-H460
# [6] = system: SK-MEL-28
# [7] = system: COLO 205
# [8] = system: Hs-578T
# [9] = system: OVCAR-3
# [10] = system: Malme-3M
# [11] = system: MDA-N
# [12] = system: LOX IMVI
# [13] = system: 786-0
# [14] = system: NCI/ADR-RES
# [15] = system: TK-10
# [16] = system: PC-3
# [17] = system: CCRF-CEM
# [18] = system: K562
# [19] = system: A549
# [20] = system: SF-295
# [21] = system: NCI-H522
# [22] = system: SNB-75
# [23] = system: HCT-15
# [24] = system: NCI-H226
# [25] = system: MDA-MB-435
# [26] = system: SK-OV-3
# [27] = system: RXF 393
# [28] = system: U-251
# [29] = system: MOLT-4
# [30] = system: SNB-19
# [31] = system: KM12
# [32] = system: DU-145
# [33] = system: M14
# [34] = system: OVCAR-4
# [35] = system: HT-29
# [36] = system: HOP-92
# [37] = system: SR
# [38] = system: SK-MEL-2
# [39] = system: MDA-MB-231
# [40] = system: UACC-257
# [41] = system: HCC 2998
# [42] = system: HCT-116
# [43] = system: SK-MEL-5
# [44] = system: NCI-H23
# [45] = system: SF-539
# [46] = system: OVCAR-8
# [47] = system: ACHN
# [48] = system: HOP-62
# [49] = system: EKVX
# [50] = system: HL-60
# [51] = system: OVCAR-5
# [52] = system: UO-31
# [53] = system: SW-620
# [54] = system: SF-268
# [55] = system: T47D
# [56] = system: SN12C
# [57] = system: CAKI-1
# [58] = system: A498
structure (smiles),measurement,setting,value
O=C(O)c1cc(/C=C/c2ccc(O)c(O)c2)ccc1O,GI50,[1],> 100 µM (inactive)
same,GI50,[2],23.1 µM (inactive)
same,GI50,[3],31 µM (inactive)
same,GI50,[4],> 100 µM (inactive)
same,GI50,[5],> 100 µM (inactive)
same,GI50,[6],> 100 µM (inactive)
same,GI50,[7],> 100 µM (inactive)
same,GI50,[8],> 100 µM (inactive)
same,GI50,[9],> 100 µM (inactive)
same,GI50,[10],> 100 µM (inactive)
same,GI50,[11],34.8 µM (inactive)
same,GI50,[12],> 100 µM (inactive)
same,GI50,[13],> 100 µM (inactive)
same,GI50,[14],> 100 µM (inactive)
same,GI50,[15],> 100 µM (inactive)
same,GI50,[16],> 100 µM (inactive)
same,GI50,[17],24.5 µM (inactive)
same,GI50,[18],20.3 µM (inactive)
same,GI50,[19],> 100 µM (inactive)
same,GI50,[20],> 100 µM (inactive)
same,GI50,[21],> 100 µM (inactive)
same,GI50,[22],> 100 µM (inactive)
same,GI50,[23],> 100 µM
same,GI50,[24],> 100 µM (inactive)
same,GI50,[25],77.8 µM (inactive)
same,GI50,[26],> 100 µM (inactive)
same,GI50,[27],28.1 µM (inactive)
same,GI50,[28],> 100 µM (inactive)
same,GI50,[29],30.8 µM (inactive)
same,GI50,[30],> 100 µM (inactive)
same,GI50,[31],> 100 µM (inactive)
same,GI50,[32],> 100 µM (inactive)
same,GI50,[33],45.8 µM (inactive)
same,GI50,[34],> 100 µM (inactive)
same,GI50,[35],> 100 µM (inactive)
same,GI50,[36],> 100 µM (inactive)
same,GI50,[37],38.3 µM (inactive)
same,GI50,[38],> 100 µM (inactive)
same,GI50,[39],> 100 µM (inactive)
same,GI50,[40],> 100 µM (inactive)
same,GI50,[41],> 100 µM (inactive)
same,GI50,[42],40 µM (inactive)
same,GI50,[43],> 100 µM (inactive)
same,GI50,[44],> 100 µM (inactive)
same,GI50,[45],> 100 µM (inactive)
same,GI50,[46],> 100 µM (inactive)
same,GI50,[47],> 100 µM (inactive)
same,GI50,[48],> 100 µM (inactive)
same,GI50,[49],> 100 µM (inactive)
same,GI50,[50],30.7 µM (inactive)
same,GI50,[51],> 100 µM (inactive)
same,GI50,[52],> 100 µM (inactive)
same,GI50,[53],> 10 µM (inactive)
same,GI50,[54],> 100 µM (inactive)
same,GI50,[55],> 100 µM (inactive)
same,GI50,[56],> 100 µM (inactive)
same,GI50,[57],32.7 µM (inactive)
CCCCCCCCCCCCCCCCCCOC[C@H](COP(=O)(O)O[C@H]1[C@H](O)[C@@H](O)[C@H](O)C[C@H]1O)OC,GI50,[3],22.1 µM (inactive)
same,GI50,[22],19.2 µM (inactive)
same,GI50,[37],15.8 µM (inactive)
same,GI50,[58],> 100 µM (inactive)
O=C1CSC2=NC3=C(CSC/C3=C\c3ccc(Cl)cc3)C(c3ccc(Cl)cc3)N12 (configuration not stated),GI50,[1],41.9 µM (inactive)
same,GI50,[2],19.3 µM (inactive)
same,GI50,[3],17.5 µM (inactive)
same,GI50,[4],24.9 µM (inactive)
same,GI50,[5],28.5 µM (inactive)
same,GI50,[6],27 µM (inactive)
same,GI50,[7],33.1 µM (inactive)
same,GI50,[9],15.5 µM (inactive)
same,GI50,[10],40.6 µM (inactive)
same,GI50,[11],> 10 µM (inactive)
same,GI50,[12],12.3 µM (inactive)
same,GI50,[13],> 10 µM (inactive)
same,GI50,[14],24.4 µM (inactive)
same,GI50,[15],32 µM (inactive)
same,GI50,[16],5.22 µM (inactive)
same,GI50,[17],14.6 µM (inactive)
same,GI50,[18],21.1 µM (inactive)
same,GI50,[19],6.87 µM (inactive)
same,GI50,[20],12.1 µM (inactive)
same,GI50,[21],12.5 µM (inactive)
same,GI50,[23],15.8 µM
same,GI50,[25],25.1 µM (inactive)
same,GI50,[26],52.7 µM (inactive)
same,GI50,[28],> 10 µM (inactive)
same,GI50,[29],9.08 µM (inactive)
same,GI50,[30],37.2 µM (inactive)
same,GI50,[31],8.04 µM (inactive)
same,GI50,[32],28.4 µM (inactive)
same,GI50,[33],19.1 µM (inactive)
same,GI50,[34],4.46 µM (inactive)
same,GI50,[35],20.2 µM (inactive)
same,GI50,[36],10.3 µM (inactive)
same,GI50,[37],14.9 µM (inactive)
same,GI50,[38],25.3 µM (inactive)
same,GI50,[39],21.8 µM (inactive)
same,GI50,[40],28.2 µM (inactive)
same,GI50,[41],25.6 µM (inactive)
same,GI50,[42],5.86 µM (inactive)
same,GI50,[43],14.4 µM (inactive)
same,GI50,[44],19.9 µM (inactive)
same,GI50,[46],8.43 µM (inactive)
same,GI50,[47],16.9 µM (inactive)
same,GI50,[49],27.4 µM (inactive)
same,GI50,[50],22.2 µM (inactive)
same,GI50,[51],61.2 µM (inactive)
same,GI50,[52],12.9 µM (inactive)
same,GI50,[53],23.8 µM (inactive)
same,GI50,[54],41.2 µM (inactive)
same,GI50,[55],32.5 µM (inactive)
same,GI50,[56],12.4 µM (inactive)
same,GI50,[57],37.2 µM (inactive)

# — ChEMBL document CHEMBL1201862, “PubChem BioAssay data set” (2004)
